The source of these data is patent US20250320184A1 (SIRONAX LTD., priority 2022, published 2025).

The assay concerns the target T1, SARM1 (50-724) (Homo sapiens, UniProt Q6SZW1).
T1 sequence (Q6SZW1 50-724): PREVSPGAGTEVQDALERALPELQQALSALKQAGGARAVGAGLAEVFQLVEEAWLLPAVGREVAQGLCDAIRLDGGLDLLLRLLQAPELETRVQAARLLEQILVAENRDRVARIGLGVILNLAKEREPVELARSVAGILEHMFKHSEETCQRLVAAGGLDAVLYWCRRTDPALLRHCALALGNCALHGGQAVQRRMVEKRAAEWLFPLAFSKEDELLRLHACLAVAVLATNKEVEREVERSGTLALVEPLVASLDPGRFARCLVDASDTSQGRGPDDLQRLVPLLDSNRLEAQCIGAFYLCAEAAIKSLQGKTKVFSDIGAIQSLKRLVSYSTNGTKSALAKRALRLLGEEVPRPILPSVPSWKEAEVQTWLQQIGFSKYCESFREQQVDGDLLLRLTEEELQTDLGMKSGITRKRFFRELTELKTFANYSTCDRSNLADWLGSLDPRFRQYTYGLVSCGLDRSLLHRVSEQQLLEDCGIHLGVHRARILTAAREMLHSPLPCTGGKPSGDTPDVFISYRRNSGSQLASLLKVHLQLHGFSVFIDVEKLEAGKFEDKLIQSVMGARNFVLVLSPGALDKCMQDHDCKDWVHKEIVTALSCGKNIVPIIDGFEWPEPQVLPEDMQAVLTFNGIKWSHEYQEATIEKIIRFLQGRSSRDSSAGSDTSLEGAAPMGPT
In words: biochemical.

As a reminder, the pIC50 is the negative decadic logarithm of the IC50, by convention in mol/L. A lower pIC50 goes with a high IC50.

The structures appear in SMILES notation. pIC50: −log10 of the molar value.

Experimental: An enzymatic assay was performed in a 384-well plate using Dulbecco's phosphate-buffered saline (PBS) as the reaction buffer. […] The reaction was initiated by adding a mixture of 200 μM nicotinamide mononucleotide (NMN) as activator and 100 μM NAD^+ as substrate. After 1 h of incubation at room temperature, the reaction was terminated with 10 times volume of 70% acetonitrile, then centrifuged at 3800 rpm for 10 min.

On to `O=c1[nH]ccc2ccc(NS(=O)(=O)c3ccc(F)c(Cl)c3Cl)cc12` [Compound 69, 2,3-dichloro-4-fluoro-N-(1-oxo-1,2-dihydroisoquinolin-7-yl)benzenesulfonamide], for which the pIC50 is more than 7.00.
The compound `O=S(=O)(Nc1ccc2ccncc2c1)c1cccc(Cl)c1Cl` [Compound 43, 2,3-dichloro-N-(isoquinolin-7-yl)benzenesulfonamide] had a pIC50 of 6.30 to 7.00.
The compound `CC1(C)NC(=O)c2cc(NS(=O)(=O)c3cccc(Cl)c3Cl)ccc21` [Compound 227, 2,3-dichloro-N-(1,1-dimethyl-3-oxoisoindolin-5-yl)benzenesulfonamide] gave a pIC50 of more than 7.00.
The value for `CC1(C)C(=O)N(CC(N)=O)c2cc(NS(=O)(=O)c3cccc(Cl)c3Cl)ccc21` [Compound 255, 2-[6-[(2,3-dichlorophenyl)sulfonylamino]-3,3-dimethyl-2-oxo-indolin-1-yl]acetamide] was more than 7.00; that for `O=C1NCCc2ccc(NS(=O)(=O)c3cc(F)c(F)cc3F)cc21` [Compound 35, 2,4,5-trifluoro-N-(1-oxo-1,2,3,4-tetrahydroisoquinolin-7-yl)benzenesulfonamide] was less than 6.00.
The value for `O=C1NCCc2ccc(NS(=O)(=O)c3ccc(F)c(Cl)c3)cc21` [Example 9A, 3-chloro-4-fluoro-N-(1-oxo-1,2,3,4-tetrahydroisoquinolin-7-yl)benzenesulfonamide] was less than 6.00.
`CC1(C)C(=O)N(CCO)c2cc(NS(=O)(=O)c3cccc(Cl)c3Cl)ccc21` [Compound 240, 2,3-dichloro-N-(1-(2-hydroxyethyl)-3,3-dimethyl-2-oxoindolin-6-yl)benzenesulfonamide] showed a negative logarithm of the IC50 (pIC50) of more than 7.00.
The value for `CC(Nc1cc(F)c2ncn(C3CC(O)C3)c(=O)c2c1)c1nc(Cl)c(Cl)s1` (stereo not shown) [Compound 340, 6-((1-(4,5-dichlorothiazol-2-yl)ethyl)amino)-8-fluoro-3-(3-ydroxycyclobutyl)quinazolin-4(3H)-one] was more than 7.00; that for `Cc1nc(C(C)Nc2ccc3c(C)n(CC(N)=O)nc3c2)sc1Cl` (single isomer, unassigned) [Compound 362] was more than 7.00.
The value for `Cc1c(F)cccc1S(=O)(=O)Nc1cccc(-c2cscn2)c1` [Example 159, 3-fluoro-2-methyl-N-(3-(thiazol-4-yl)phenyl)benzenesulfonamide] was 6.00 to 6.30; that for `CC[C@@H](C(N)=O)c1ccc(N[C@H](C)c2nc(Cl)c(Cl)s2)cc1` (single isomer, unassigned) [Compound 302B] was less than 6.00.
The value for `CC(Nc1ccc2nc[nH]c(=O)c2n1)c1c(Cl)ccc(F)c1Cl` (single isomer, unassigned) [Compound 383] was less than 6.00; that for `CC(Nc1ccc2cc[nH]c(=O)c2c1)c1sc(Cl)nc1Cl` (racemic) [Example 130, 7-((1-(2,4-dichlorothiazol-5-yl)ethyl)amino)isoquinolin-1(2H)-one] was 6.30 to 7.00.
As to `Cc1c(F)cccc1[S+]([O-])Nc1ccc2c(c1)C(=O)NCC2` (stereo not shown) [Example 158], the pIC50 is less than 6.00.
The value for `CC(Nc1ccc2nc[nH]c(=O)c2c1)c1c(Cl)ccc(F)c1Cl` (racemic) [Example 193, 6-((1-(2,6-dichloro-3-fluorophenyl)ethyl)amino)quinazolin-4(3H)-one] was more than 7.00; that for `CC1(C)C(=O)N(CC(=O)N2CCCCC2)c2cc(NS(=O)(=O)c3cccc(Cl)c3Cl)ccc21` [Example 286, 2,3-dichloro-N-(3,3-dimethyl-2-oxo-1-(2-oxo-2-(piperidin-1-yl)ethyl)indolin-6-yl)benzenesulfonamide] was more than 7.00; that for `Cc1c(F)cccc1S(=O)(=O)Nc1cccc(N2CCCC2=O)c1` [Compound 27, 3-fluoro-2-methyl-N-(3-(2-oxopyrrolidin-1-yl)phenyl)benzenesulfonamide] was less than 6.00.
Take `CC(Nc1ccc2ccn(C)c(=O)c2c1)c1cncc(Cl)c1Cl` (racemic) [Compound 184, 7-((1-(4,5-dichloropyridin-3-yl)ethyl)amino)-2-methylisoquinolin-1(2H)-one]: the pIC50 was 6.30 to 7.00.
As for `CC(Nc1ccc2c(c1)NC(=O)CCC2)c1nc(Cl)c(Cl)s1` (racemic) [Compound 229, 8-[1-(4,5-dichlorothiazol-2-yl)ethylamino]-1,3,4,5-tetrahydro-1-benzazepin-2-one], the pIC50 is 6.30 to 7.00.
On to `O=S(=O)(Nc1ccc2c(C3CC3)n[nH]c2c1)c1cccc(Cl)c1Cl` [Compound 88, 2,3-dichloro-N-(3-cyclopropyl-1H-indazol-6-yl)benzenesulfonamide], for which the pIC50 is more than 7.00.
The value for `CC(Nc1ccc2nc[nH]c(=O)c2c1)c1ccc(F)c(Cl)c1Cl` (racemic) [Example 156, 6-[1-(2,3-dichloro-4-fluoro-phenyl)ethylamino]-3H-quinazolin-4-one] was more than 7.00.
For `CC(Nc1ccc2c(c1)NC(=O)C2(C)C)c1c(Cl)ccc(F)c1Cl` (racemic) [Compound 215, 6-[1-(2,6-dichloro-3-fluoro-phenyl)ethylamino]-3,3-dimethyl-indolin-2-one], the pIC50 is more than 7.00.
The value for `O=C1CCCc2ccc(NS(=O)(=O)c3cccc(Cl)c3Cl)cc2N1` [Compound 84, 2,3-dichloro-N-(2-oxo-2,3,4,5-tetrahydro-1H-benzo[b]azepin-8-yl)benzenesulfonamide] was more than 7.00; that for `CC(Nc1ccc2nc[nH]c(=O)c2c1)c1c(Cl)ccc(F)c1Cl` (single isomer, unassigned) [Example 201] was more than 7.00.
In the case of `CC(Nc1ccc2cc[nH]c(=O)c2c1)c1nccc(Cl)c1Cl` (racemic) [Example 118, 7-((1-(3,4-dichloropyridin-2-yl)ethyl)amino)isoquinolin-1(2H)-one], the pIC50 was more than 7.00.
The value for `O=C1NCCCc2ccc(NS(=O)(=O)c3cccc(Cl)c3Cl)cc21` [Compound 41, 2,3-dichloro-N-(1-oxo-2,3,4,5-tetrahydro-1H-benzo[c]azepin-8-yl)benzenesulfonamide] was more than 7.00; that for `Cc1c(F)cccc1S(=O)(=O)Nc1ccc2c(c1)NC(=O)CC2` [Compound 3, 3-fluoro-2-methyl-N-(2-oxo-1,2,3,4-tetrahydroquinolin-7-yl)benzenesulfonamide] was 6.30 to 7.00; that for `O=c1[nH]cc(Cl)c2ccc(NS(=O)(=O)c3c(Cl)ccc(Cl)c3Cl)cc12` [Compound 197, 2,3,6-trichloro-N-(4-chloro-1-oxo-1,2-dihydroisoquinolin-7-yl)benzenesulfonamide] was more than 7.00.
The value for `CC(Nc1cc(F)c2ncn(-c3cnn[nH]3)c(=O)c2c1)c1nc(Cl)c(Cl)s1` (racemic) [Example 372, 6-((1-(4,5-dichlorothiazol-2-yl)ethyl)amino)-8-fluoro-3-(1H-1,2,3-triazol-5-yl)quinazolin-4(3H)-one] was more than 7.00.
The value for `CC(Nc1ccc2nc[nH]c(=O)c2n1)c1c(F)ccc(Cl)c1Cl` (single isomer, unassigned) [Compound 388] was less than 6.00; that for `CC(Nc1ccc2nc[nH]c(=O)c2c1)c1cccc(Cl)c1Cl` (single isomer, unassigned) [Example 152A] was 6.00 to 6.30.
`Cc1c(F)cccc1S(=O)(=O)Nc1cccc(-c2ccccn2)c1` [Example 160, 3-fluoro-2-methyl-N-(3-(pyridin-2-yl)phenyl)benzenesulfonamide] showed a negative logarithm of the IC50 (pIC50) of 6.00 to 6.30.
Turning to `CC(Nc1ccc2nc[nH]c(=O)c2n1)c1ccc(F)c(Cl)c1Cl` (single isomer, unassigned) [Compound 386], the negative logarithm of the IC50 (pIC50) is more than 7.00.
The value for `Cc1cc(C)c(S(=O)(=O)Nc2ccc3c(c2)C(=O)NCC3)c(C)c1` [Example 10A, 2,4,6-trimethyl-N-(1-oxo-1,2,3,4-tetrahydroisoquinolin-7-yl)benzenesulfonamide] was 6.00 to 6.30; that for `O=C1NCCc2ccc(NC(c3ccccc3)c3ccccc3)cc21` [Example 124, 7-(benzhydrylamino)-3,4-dihydroisoquinolin-1(2H)-one] was less than 6.00.
The value for `CC(Nc1ccc2c(Cl)n(CC(N)=O)nc2c1)c1nc(Cl)c(Cl)s1` (racemic) [Compound 361, 2-(3-chloro-6-((1-(4,5-dichlorothiazol-2-yl)ethyl)amino)-2H-indazol-2-yl)acetamide] was more than 7.00.
In the case of `Cc1cc(F)ccc1S(=O)(=O)Nc1ccc2c(c1)C(=O)NCC2` [Example 4A, 4-fluoro-2-methyl-N-(1-oxo-1,2,3,4-tetrahydroisoquinolin-7-yl)benzenesulfonamide], the pIC50 is less than 6.00.
The value for `CC(Nc1ccc2cn[nH]c(=O)c2c1)c1cc(F)cc(Cl)c1Cl` (racemic) [Example 200, 7-((1-(2,3-dichloro-5-fluorophenyl)ethyl)amino)phthalazin-1(2H)-one] was 6.30 to 7.00; that for `O=C1NCCc2ccc(NS(=O)(=O)c3cccc(F)c3F)cc21` [Compound 54, 2,3-difluoro-N-(1-oxo-1,2,3,4-tetrahydroisoquinolin-7-yl)benzenesulfonamide] was less than 6.00; that for `O=C1NCCc2ccc(NS(=O)(=O)N3C4CCCC3CC4)cc21` [Example 166, N-(1-oxo-1,2,3,4-tetrahydroisoquinolin-7-yl)-8-azabicyclo[3.2.1]octane-8-sulfonamide] was less than 6.00.
